System: immunoglobulin light chain protein WIL-FL T46L
Test: Differential scanning fluorimetry (thermal shift) assay
Format: binding
Conditions: Table B; temperature shift [Tm]compound-[Tm]vehicle; recombinant WIL-FL T46L

SMILES | DSF
Cc1cc(N2CC[C@](C)(c3ccccc3)C2)cn2nc(C34CC(CO3)C4COC3CCN(c4cccc(C(=O)O)n4)CC3)nc12 (some centres unmarked) [Compound 503] | ***** (>2.5° C.=*****)
Cc1cc(N2CC[C@](C)(c3ccccc3)C2)cn2nc(C34CC(CO3)C4Cc3nnn[nH]3)nc12 (some centres unmarked) [Compound 504] | ***** (>2.5° C.=*****)
Cc1cc(N2CC[C@](C)(c3ccccc3)C2)cn2nc(C34CC(CO3)C4Cc3nnc[nH]3)nc12 (stereo partly drawn) [Compound 505, 2-(5-((4H-1,2,4-triazol-3-yl)methyl)-2-oxabicyclo[2.1.1]hexan-1-yl)-8-methyl-6-((R)-3-methyl-3-phenylpyrrolidin-1-yl)-[1,2,4]triazolo[1,5-a]pyridine] | ***** (>2.5° C.=*****)
Cc1cc(N2CC[C@](C)(c3ccccc3)C2)cn2nc(C34CC(CO3)C4CN3CC4C(C3)C4C(=O)O)nc12 (stereo partly drawn) [Compound 506, 3-((1-(8-methyl-6-((R)-3-methyl-3-phenylpyrrolidin-1-yl)-[1,2,4]triazolo[1,5-a]pyridin-2-yl)-2-oxabicyclo[2.1.1]hexan-5-yl)methyl)-3-azabicyclo[3.1.0]hexane-6-carboxylic acid] | ***** (>2.5° C.=*****)
Cc1cc(N2CC[C@](C)(c3cccc(F)c3)C2)cn2nc(C34CC(CO3)C4N3CC4(CC4)NC3=O)nc12 (stereo partly drawn) [Compound 507, 6-(1-(6-((R)-3-(3-fluorophenyl)-3-methylpyrrolidin-1-yl)-8-methyl-[1,2,4]triazolo[1,5-a]pyridin-2-yl)-2-oxabicyclo[2.1.1]hexan-5-yl)-4,6-diazaspiro[2.4]heptan-5-one] | ***** (>2.5° C.=*****)
Cc1cc(N2CC[C@](C)(c3cccc(F)c3)C2)cn2nc(C34CC(CO3)C4N)nc12 (some centres unmarked) [Compound 508] | ***** (>2.5° C.=*****)
Cc1cc(N2CC[C@](C)(c3ccccc3)C2)cn2nc(C34CC(CO3)C4N3CC4(COC4)NC3=O)nc12 (stereo partly drawn) [Compound 509, 7-(1-(8-methyl-6-((R)-3-methyl-3-phenylpyrrolidin-1-yl)-[1,2,4]triazolo[1,5-a]pyridin-2-yl)-2-oxabicyclo[2.1.1]hexan-5-yl)-2-oxa-5,7-diazaspiro[3.4]octan-6-one] | ***** (>2.5° C.=*****)
Cc1cc(N2CC[C@](C)(c3ccccc3)C2)cn2nc(C34CC(CO3)C4NCC3(N)COC3)nc12 (stereo partly drawn) [Compound 510, N-[(3-aminooxetan-3-yl)methyl]-1-[8-methyl-6-[(3R)-3-methyl-3-phenyl-pyrrolidin-1-yl]-[1,2,4]triazolo[1,5-a]pyridin-2-yl]-2-oxabicyclo[2.1.1]hexan-5-amine] | ***** (>2.5° C.=*****)
Cc1cc(N2CC[C@](C)(c3ccccc3)C2)cn2nc(C34CC(CO3)C4N3CC4(CC(CO)C4)NC3=O)nc12 (some centres unmarked) [Compound 511] | ***** (>2.5° C.=*****)
Cc1cc(N2CC3(CCC3c3cccc(F)c3)C2)cn2nc(C34CC(CO3)C4N3CC4(CC4)NC3=O)nc12 (centres unmarked) [Compound 512, 6-[1-[6-[7-(3-fluorophenyl)-2-azaspiro[3.3]heptan-2-yl]-8-methyl-[1,2,4]triazolo[1,5-a]pyridin-2-yl]-2-oxabicyclo[2.1.1]hexan-5-yl]-4,6-diazaspiro[2.4]heptan-5-one] | ***** (>2.5° C.=*****)
Cc1cc(N2CC[C@](C)(c3ccccc3Cl)C2)cn2nc(C34CC(CO3)C4N3CC4(CC4)NC3=O)nc12 (stereo partly drawn) [Compound 513, 6-[1-[6-[(3R)-3-(2-chlorophenyl)-3-methyl-pyrrolidin-1-yl]-8-methyl-[1,2,4]triazolo[1,5-a]pyridin-2-yl]-2-oxabicyclo[2.1.1]hexan-5-yl]-4,6-diazaspiro[2.4]heptan-5-one] | ***** (>2.5° C.=*****)
Cc1cc(N2CC[C@](C)(c3ccccc3)C2)cn2nc(C34CC(CO3)C4N3CC4(CNC4)NC3=O)nc12 (some centres unmarked) [Compound 515] | ***** (>2.5° C.=*****)
Cc1cc(N2CC[C@](C)(c3ccccc3)C2)cn2nc(C34CC(CO3)C4N3CC4(CN(c5cccc(C(=O)O)n5)C4)NC3=O)nc12 (some centres unmarked) [Compound 516] | ***** (>2.5° C.=*****)
Cc1cc(N2CC[C@](C)(c3ccccc3)C2)cn2nc(C34CC(CO3)C4N3CC4(CN(C(=O)C5CC[C@@H](C(=O)O)O5)C4)NC3=O)nc12 (some centres unmarked) [Compound 517] | ***** (>2.5° C.=*****)
COC(C)(CC(=O)N1CC2(C1)CN(C1C3COC1(c1nc4c(C)cc(N5CC[C@](C)(c6ccccc6)C5)cn4n1)C3)C(=O)N2)C(=O)O (some centres unmarked) [Compound 518] | ***** (>2.5° C.=*****)
Cc1cc(N2CC[C@](C)(c3ccccc3)C2)cn2nc([C@@]34C[C@@H](CO3)[C@H]4N3CC4(CN(c5cccc(C(=O)O)n5)C4)NC3=O)nc12 [Compound 519] | ***** (>2.5° C.=*****)
Cc1cc(N2CC[C@](C)(c3ccccc3)C2)cn2nc([C@]34C[C@H](CO3)[C@@H]4N3CC4(CN(c5cccc(C(=O)O)n5)C4)NC3=O)nc12 [Compound 520] | ***** (>2.5° C.=*****)
Cc1cc(N2CC[C@](C)(c3ccccc3)C2)cn2nc(C34CC(CO3)C4NCC3(N)CCOCC3)nc12 (some centres unmarked) [Compound 521] | ***** (>2.5° C.=*****)

SMILES | DSF
Cc1cc(N2CC[C@](C)(c3ccccc3)C2)cn2nc(C34CC(CO3)C4N3CC4(CCOCC4)NC3=O)nc12 (some centres unmarked) [Compound 522] | ***** (>2.5° C.=*****)
Cc1cc(N2CC[C@](C)(c3ccccc3)C2)cn2nc([C@]34C[C@H](CO3)[C@@H]4N3CC4(CC4)NC3=O)nc12 [Compound 523] | ***** (>2.5° C.=*****)
Cc1cc(N2CC[C@](C)(c3ccccc3)C2)cn2nc([C@@]34C[C@@H](CO3)[C@H]4N3CC4(CC4)NC3=O)nc12 [Compound 524] | ***** (>2.5° C.=*****)
Cc1cc(N2CC[C@](C)(c3ccccc3)C2)cn2nc(C34CC(CO3)C4N3C[C@]4(CC[C@H](C(=O)O)CC4)NC3=O)nc12 (some centres unmarked) [Compound 525] | ***** (>2.5° C.=*****)
Cc1cc(N2CC[C@](C)(c3ccccc3)C2)cn2nc(C34CC(CO3)C4N3C[C@]4(CC[C@@H](C(=O)O)CC4)NC3=O)nc12 (some centres unmarked) [Compound 526] | ***** (>2.5° C.=*****)
Cc1cc(N2CC[C@](C)(c3ccccc3)C2)cn2nc(C34CC(CO3)C4N3CCOCC3)nc12 (stereo partly drawn) [Compound 527, 4-(1-(8-methyl-6-((R)-3-methyl-3-phenylpyrrolidin-1-yl)-[1,2,4]triazolo[1,5-a]pyridin-2-yl)-2-oxabicyclo[2.1.1]hexan-5-yl)morpholine] | ***** (>2.5° C.=*****)
Cc1cc(N2CC[C@](C)(c3ccccc3)C2)cn2nc(C34CC(CO3)C4NCC(C)(C)O)nc12 (stereo partly drawn) [Compound 528, 2-methyl-1-[[1-[8-methyl-6-[(3R)-3-methyl-3-phenyl-pyrrolidin-1-yl]-[1,2,4]triazolo[1,5-a]pyridin-2-yl]-2-oxabicyclo[2.1.1]hexan-5-yl]amino]propan-2-ol] | ***** (>2.5° C.=*****)
Cc1cc(N2CC[C@](C)(c3ccccc3)C2)cn2nc(C34CC(CO3)C4N3CC(C)(C)OC3=O)nc12 (stereo partly drawn) [Compound 529, 5,5-dimethyl-3-[1-[8-methyl-6-[(3R)-3-methyl-3-phenyl-pyrrolidin-1-yl]-[1,2,4]triazolo[1,5-a]pyridin-2-yl]-2-oxabicyclo[2.1.1]hexan-5-yl]oxazolidin-2-one] | ***** (>2.5° C.=*****)
Cc1cc(N2CC[C@](C)(c3ccccc3)C2)cn2nc(C34CC(CO3)C4NC3(C#N)CC3)nc12 (stereo partly drawn) [Compound 530, 1-((1-(8-methyl-6-((R)-3-methyl-3-phenylpyrrolidin-1-yl)-[1,2,4]triazolo[1,5-a]pyridin-2-yl)-2-oxabicyclo[2.1.1]hexan-5-yl)amino)cyclopropane-1-carbonitrile] | ***** (>2.5° C.=*****)
Cc1cc(N2CC[C@](C)(c3ccccc3)C2)cn2nc(C34CC(CO3)C4N3CC4(CCN(c5cccc(C(=O)O)n5)C4)NC3=O)nc12 (stereo partly drawn) [Compound 531, 6-[3-[1-[8-methyl-6-[(3R)-3-methyl-3-phenyl-pyrrolidin-1-yl]-[1,2,4]triazolo[1,5-a]pyridin-2-yl]-2-oxabicyclo[2.1.1]hexan-5-yl]-2-oxo-1,3,7-triazaspiro[4.4]nonan-7-yl]pyridine-2-carboxylic acid] | ***** (>2.5° C.=*****)
Cc1cc(N2CC[C@](C)(c3ccccc3)C2)cn2nc(C34CC(CO3)C4N3CC4(CCC4)NC3=O)nc12 (stereo partly drawn) [Compound 532, 7-(1-(8-methyl-6-((R)-3-methyl-3-phenylpyrrolidin-1-yl)-[1,2,4]triazolo[1,5-a]pyridin-2-yl)-2-oxabicyclo[2.1.1]hexan-5-yl)-5,7-diazaspiro[3.4]octan-6-one] | ***** (>2.5° C.=*****)
Cc1cc(N2CC[C@](C)(c3ccccc3)C2)cn2nc(C34CC(CO3)C4NC(=O)C3(C)CN(c4cccc(C(=O)O)n4)C3)nc12 (stereo partly drawn) [Compound 533, 6-(3-methyl-3-((1-(8-methyl-6-((R)-3-methyl-3-phenylpyrrolidin-1-yl)-[1,2,4]triazolo[1,5-a]pyridin-2-yl)-2-oxabicyclo[2.1.1]hexan-5-yl)carbamoyl)azetidin-1-yl)picolinic acid] | ***** (>2.5° C.=*****)
C[C@]1(c2ccccc2)CCN(c2cc(CO)c3nc(C45CC(CO)(CO4)C5C(N)=O)nn3c2)C1 (some centres unmarked) [Compound 536] | ***** (>2.5° C.=*****)
Cc1cc(N2CC[C@](C)(c3ccccc3)C2)cn2nc(C34CC(C(=O)O)(CO3)C4C(=O)O)nc12 (stereo partly drawn) [Compound 537, 1-(8-methyl-6-((R)-3-methyl-3-phenylpyrrolidin-1-yl)-[1,2,4]triazolo[1,5-a]pyridin-2-yl)-2-oxabicyclo[2.1.1]hexane-4,5-dicarboxylic acid] | **** (>1.5-2.5° C.=****)
Cc1n[nH]c(C2C3(NC(=O)[C@@H]4CC[C@H](C(=O)O)O4)COC2(c2nc4c(C)cc(N5CC[C@](C)(c6ccccc6)C5)cn4n2)C3)n1 (stereo partly drawn) [Compound 538, (2R,5S)-5-((5-(3-methyl-1H-1,2,4-triazol-5-yl)-1-(8-methyl-6-((R)-3-methyl-3-phenylpyrrolidin-1-yl)-[1,2,4]triazolo[1,5-a]pyridin-2-yl)-2-oxabicyclo[2.1.1]hexan-4-yl)carbamoyl)tetrahydrofuran-2-carboxylic acid] | ***** (>2.5° C.=*****)
Cc1cc(N2CC[C@](C)(c3ccccc3)C2)cn2nc(C34CC(N)(CO3)C4c3nc(C)n(C)n3)nc12 (some centres unmarked) [Compound 539] | ***** (>2.5° C.=*****)
CC(=O)NC12COC(c3nc4c(C)cc(N5CC[C@](C)(c6ccccc6)C5)cn4n3)(C1)C2c1nc(C)n(C)n1 (some centres unmarked) [Compound 540] | ***** (>2.5° C.=*****)

Reference: patent publication US20260285857A1, “BICYCLIC AND HETEROCYCLIC AMIDE COMPOUNDS” (priority 2024, published 2026)
